Values quoted from earlier work, collected in patent publication US20070048371A1, “Pharmaceutical formulations/composition of guanfacine suitable for single dose form administration daily” (priority 2005, published 2007).
Structures can show the parent of a compound that is named as a salt.

Conditions: white to off-white powder; cited from earlier work

## N=C(N)NC(=O)Cc1c(Cl)cccc1Cl [Guanfacine hydrochloride, N-amidino-2-(2,6-dichlorophenyl) acetamide hydrochloride]
  solubility in acetone: slightly soluble
  solubility in water and alcohol: sparingly soluble
